Results taken from ChEMBL document CHEMBL1201862, “PubChem BioAssay data set” (2004).
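Method: 48-hour compound exposure of cells in 96-well plates, five concentrations, linear interpolation of endpoints. GI50: concentration for 50% inhibition of growth.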 Active and inactive are the calls of the source. No stated cut-off is given here; in the data, active = GI50 up to about 1.1 µM and inactive = higher.

Tests used:
Experiment in all cases: NCI-60 cell line screen, 48 h
[1] = tested on: SR
[2] = tested on: SF-295
[3] = tested on: HOP-92
[4] = tested on: CAKI-1
[5] = tested on: HOP-62
[6] = tested on: U-251
[7] = tested on: COLO 205
[8] = tested on: SK-OV-3
[9] = tested on: SF-268
[10] = tested on: HCT-15
[11] = tested on: K562
[12] = tested on: CCRF-CEM
[13] = tested on: OVCAR-8
[14] = tested on: UO-31
[15] = tested on: SK-MEL-28
[16] = tested on: RPMI-8226
[17] = tested on: OVCAR-5
[18] = tested on: HL-60
[19] = tested on: Malme-3M
[20] = tested on: A549

SMILES	GI50 [1]	GI50 [2]	GI50 [3]	GI50 [4]	GI50 [5]	GI50 [6]	GI50 [7]	GI50 [8]	GI50 [9]	GI50 [10] [µM]	GI50 [11]	GI50 [12]	GI50 [13]	GI50 [14]	GI50 [15]	GI50 [16]	GI50 [17]	GI50 [18]	GI50 [19]	GI50 [20]
C=CC[C@@H]1C=C[C@@H](C(=O)OC)n2c(=O)n(-c3ccccc3)c(=O)n21	> 100 µM (inactive)	> 100 µM (inactive)	> 100 µM (inactive)	> 100 µM (inactive)	> 100 µM (inactive)	> 100 µM (inactive)	> 100 µM (inactive)	> 100 µM (inactive)	> 100 µM (inactive)	> 100	> 100 µM (inactive)	> 100 µM (inactive)	> 100 µM (inactive)	> 100 µM (inactive)	> 100 µM (inactive)	> 100 µM (inactive)	> 100 µM (inactive)			
CC1=C2CCCC2C/C(=N/Nc2ccc([N+](=O)[O-])cc2[N+](=O)[O-])CC1 (stereo unspecified)	> 100 µM (inactive)	> 100 µM (inactive)	> 100 µM (inactive)	> 100 µM (inactive)	> 100 µM (inactive)	> 100 µM (inactive)	> 100 µM (inactive)	> 100 µM (inactive)	> 100 µM (inactive)	> 100	> 100 µM (inactive)		> 100 µM (inactive)	> 100 µM (inactive)	> 100 µM (inactive)	> 100 µM (inactive)	> 100 µM (inactive)	11.1 µM (inactive)	> 100 µM (inactive)	> 100 µM (inactive)
[N-]=[N+]=Nc1ccc(S(=O)(=O)Oc2cc(OS(=O)(=O)c3ccc(N=[N+]=[N-])cc3)cc(OS(=O)(=O)c3ccc(N=[N+]=[N-])cc3)c2)cc1	> 100 µM (inactive)	> 100 µM (inactive)	> 100 µM (inactive)	> 10 µM (inactive)	> 100 µM (inactive)	> 100 µM (inactive)	> 10 µM (inactive)		> 100 µM (inactive)	> 100	> 100 µM (inactive)	> 100 µM (inactive)	> 10 µM (inactive)	> 100 µM (inactive)	> 100 µM (inactive)	> 100 µM (inactive)	> 100 µM (inactive)		> 100 µM (inactive)	> 100 µM (inactive)
Cc1c2c(c(O)c3c(O)cccc13)C(=O)C1(O)C(=O)C(C(=O)NCNc3ccc(C(N)=O)cn3)=C(O)C(N(C)C)C1C2 (stereo unspecified)	3.05 µM (inactive)	2.87 µM (inactive)	2.01 µM (inactive)	5.36 µM (inactive)	6 µM (inactive)	2.6 µM (inactive)	6.28 µM (inactive)	3.1 µM (inactive)	3.61 µM (inactive)	2.8	2.4 µM (inactive)	2.94 µM (inactive)	3.21 µM (inactive)		3.53 µM (inactive)	1.83 µM (inactive)	5.02 µM (inactive)		3.28 µM (inactive)	2.96 µM (inactive)
O=C1c2ccccc2NC(=O)C2C1C(c1ccccc1)CC2(O)c1ccccc1 (stereo unspecified)	70.3 µM (inactive)	43.6 µM (inactive)	9.89 µM (inactive)	78 µM (inactive)	79.1 µM (inactive)		17.5 µM (inactive)	> 100 µM (inactive)	> 100 µM (inactive)	50.5		27.7 µM (inactive)	> 100 µM (inactive)		> 100 µM (inactive)		> 100 µM (inactive)	53.1 µM (inactive)	> 100 µM (inactive)	30 µM (inactive)
CCn1c(=O)c2cn[nH]c2n(C)c1=O	> 100 µM (inactive)	> 100 µM (inactive)	> 100 µM (inactive)	> 100 µM (inactive)	> 100 µM (inactive)	> 100 µM (inactive)	> 100 µM (inactive)	> 100 µM (inactive)	> 100 µM (inactive)	> 100	> 100 µM (inactive)	> 100 µM (inactive)	> 100 µM (inactive)	> 100 µM (inactive)	> 100 µM (inactive)	> 100 µM (inactive)	> 100 µM (inactive)		> 100 µM (inactive)	> 100 µM (inactive)
COC(=O)CN1SC2(SC13C(C)(C)C(=O)C3(C)C)C(C)(C)C(=O)C2(C)C	81.8 µM (inactive)	48.3 µM (inactive)	0.0244 µM (active)	54.2 µM (inactive)	91 µM (inactive)	94.4 µM (inactive)	37.3 µM (inactive)	41 µM (inactive)	36.1 µM (inactive)	> 100	52.6 µM (inactive)	11.1 µM (inactive)	64.4 µM (inactive)	86.3 µM (inactive)	> 100 µM (inactive)	49.8 µM (inactive)	> 100 µM (inactive)		50.6 µM (inactive)	51.2 µM (inactive)
Oc1ccc2c3c1OC1c4[nH]c5c(c4CC4(O)C(C2)N(CC2CC2)CC[C@]314)CC1(O)C2Cc3ccc(O)c4c3[C@@]1(CCN2CC1CC1)C5O4 (stereo partly specified)	27.4 µM (inactive)	19.6 µM (inactive)	23 µM (inactive)	> 100 µM (inactive)	77.3 µM (inactive)	19.9 µM (inactive)	18.1 µM (inactive)	43 µM (inactive)	19.8 µM (inactive)	> 100	25.4 µM (inactive)		51.9 µM (inactive)	> 100 µM (inactive)	20.1 µM (inactive)	25.2 µM (inactive)	28 µM (inactive)	21.9 µM (inactive)	17 µM (inactive)	18.6 µM (inactive)
CN1CCC23c4c5ccc(O)c4OC2c2[nH]c4ccccc4c2CC3(O)C1C5 (stereo unspecified)	26.6 µM (inactive)	52.4 µM (inactive)	16.3 µM (inactive)	47.1 µM (inactive)	> 100 µM (inactive)	22.5 µM (inactive)	17.1 µM (inactive)	> 100 µM (inactive)	32.1 µM (inactive)	25.6	14 µM (inactive)	22 µM (inactive)	54.8 µM (inactive)	15.2 µM (inactive)	13.7 µM (inactive)	19.5 µM (inactive)	> 100 µM (inactive)		20.6 µM (inactive)	53 µM (inactive)
CO/C(=N\N=C\c1ccccc1F)c1ccncc1	> 10 µM (inactive)	> 10 µM (inactive)	> 10 µM (inactive)	> 10 µM (inactive)	> 10 µM (inactive)	> 10 µM (inactive)	> 10 µM (inactive)		> 10 µM (inactive)	> 10	> 10 µM (inactive)	> 10 µM (inactive)	> 10 µM (inactive)	> 10 µM (inactive)		> 10 µM (inactive)	> 10 µM (inactive)	> 10 µM (inactive)	> 10 µM (inactive)	> 10 µM (inactive)
O=c1oc2ccccc2cc1/C=N/N1C(=S)N(c2ccccc2)C(=N\c2ccccc2)/C1=N/c1ccccc1	> 100 µM (inactive)	28.1 µM (inactive)	> 100 µM (inactive)	> 100 µM (inactive)	52.2 µM (inactive)	> 100 µM (inactive)	> 100 µM (inactive)	> 100 µM (inactive)	> 100 µM (inactive)	> 100	> 100 µM (inactive)		34.6 µM (inactive)	> 100 µM (inactive)	> 100 µM (inactive)	> 100 µM (inactive)	> 100 µM (inactive)		> 100 µM (inactive)	> 100 µM (inactive)
CCOC(=O)Nc1sc2c(c1C#N)CC(C)CC2 (stereo unspecified)	1.4 µM (inactive)	11.6 µM (inactive)	25.4 µM (inactive)	21.8 µM (inactive)	9.79 µM (inactive)	5.42 µM (inactive)	4.17 µM (inactive)	23 µM (inactive)	10.7 µM (inactive)	2.75	2.38 µM (inactive)		8.75 µM (inactive)	8.91 µM (inactive)	17.1 µM (inactive)	4.86 µM (inactive)	16.3 µM (inactive)	0.1 µM (active)	8.55 µM (inactive)	5.06 µM (inactive)
COc1cc2c(c(OC)c1OC)C(=O)c1c(O)cc(C)c(OC)c1C2=O	> 100 µM (inactive)	82.6 µM (inactive)	> 100 µM (inactive)	44.6 µM (inactive)	50.7 µM (inactive)	94 µM (inactive)	> 100 µM (inactive)		> 100 µM (inactive)	> 100	> 10 µM (inactive)	> 10 µM (inactive)	> 100 µM (inactive)	85.3 µM (inactive)	37.2 µM (inactive)	> 100 µM (inactive)	> 100 µM (inactive)	> 100 µM (inactive)	> 100 µM (inactive)	77.3 µM (inactive)
Clc1ccc(CCNCCNC2(c3cc4ccccc4s3)CCCCC2)cc1Cl	2.02 µM (inactive)	1.59 µM (inactive)	1.68 µM (inactive)	1.87 µM (inactive)	1.26 µM (inactive)	1.63 µM (inactive)	1.58 µM (inactive)	1.46 µM (inactive)	1.79 µM (inactive)	1.92	2.31 µM (inactive)	2.54 µM (inactive)	1.84 µM (inactive)	1.85 µM (inactive)	1.79 µM (inactive)	2.34 µM (inactive)	1.85 µM (inactive)		1.88 µM (inactive)	1.81 µM (inactive)
C=CCN1C[C@@H](C)N([C@@H](c2ccc(C(=O)N(CC)CC)cc2)c2cccc(OC)c2)C[C@@H]1C	> 100 µM (inactive)	> 100 µM (inactive)	> 100 µM (inactive)	> 100 µM (inactive)	> 100 µM (inactive)	> 100 µM (inactive)	> 100 µM (inactive)	> 100 µM (inactive)	> 100 µM (inactive)	> 100	> 100 µM (inactive)	3.7 µM (inactive)	> 100 µM (inactive)	> 100 µM (inactive)	> 100 µM (inactive)	> 100 µM (inactive)	> 100 µM (inactive)		> 100 µM (inactive)	> 100 µM (inactive)
